Reference: patent US6664260B2, “Heterocyclic ether substituted imidazoquinolines” (3M Innovative Properties Company, priority 2000, dated 2003)

How the values were obtained:
[1] = system: interferon (α); assay: Cytokine Induction in Human Cells: interferon (α) secreted by PBMCs, ELISA; assay type: cell-based; conditions: PBMC, incubated 18 to 24 hours, lowest concentration found to induce interferon
Source text: (§1) An in vitro human blood cell system is used to assess cytokine induction. Activity is based on the measurement of interferon and tumor necrosis factor (α) (IFN and TNF, respectively) secreted into culture media as described by Testerman et. al. In “Cytokine Induction by the Immunomodulators Imiquimod and S-27609”, Journal of Leukocyte Biology, 58, 365-372 (September, 1995).
(§2) Whole blood from healthy human donors is collected by venipuncture into EDTA vacutainer tubes. Peripheral blood mononuclear cells (PBMCs) are separated from whole blood by density gradient centrifugation using Histopaque®-1077. The PBMCs are washed twice with Hank's Balanced Salts Solution and then are suspended at 3-4×10^6 cells/mL in RPMI complete. The PBMC suspension is added to 48 well flat bottom sterile tissue culture plates (Costar, Cambridge, Mass. or Becton Dickinson Labware, Lincoln Park, N.J.) containing an equal volume of RPMI complete media containing test compound.
(§3) The compounds are solubilized in dimethyl sulfoxide (DMSO). The DMSO concentration should not exceed a final concentration of 1% for addition to the culture wells
(§4) The solution of test compound is added at 60 μM to the first well containing RPMI complete and serial 3 fold dilutions are made in the wells. The PBMC suspension is then added to the wells in an equal volume, bringing the test compound concentrations to the desired range (0.12 to 30 μM). The final concentration of PBMC suspension is 1.5-2×10^6 cells/mL. The plates are covered with sterile plastic lids, mixed gently and then incubated for 18 to 24 hours at 37° C. in a 5% carbon dioxide atmosphere.
(§5) Following incubation the plates are centrifuged for 5-10 minutes at 1000 rpm (˜200×g) at 4° C. The cell-free culture supernatant is removed with a sterile polypropylene pipet and transferred to sterile polypropylene tubes. Samples are maintained at −30 to −70° C. until analysis. The samples are analyzed for interferon (α) and for tumor necrosis factor (α) by ELISA.
Interferon (α) concentration is determined by ELISA using a Human Multi-Species kit from PBL Biomedical Laboratories, New Brunswick, N.J. Results are expressed in pg/mL.
(§6) The table below lists the lowest concentration found to induce interferon and the lowest concentration found to induce tumor necrosis factor for each compound.

[2] = system: tumor necrosis factor (α); assay: Cytokine Induction in Human Cells: tumor necrosis factor (α) secreted by PBMCs, ELISA; assay type: cell-based; set-up: key to Lowest Effective Concentration (μM) Tumor Necrosis Factor: A “*” indicates that no induction was seen at any of the tested concentrations; generally the highest tested concentration was 10 or 30 μM; conditions: incubated 18 to 24 hours, lowest concentration found to induce tumor necrosis factor; for minimal effective concentration: PBMC
Source text: as §1, §2, §3, §4, §5
Tumor necrosis factor (α) (TNF)concentration is determined using ELISA kits available from Genzyme, Cambridge, Mass.; R&D Systems, Minneapolis, Minn.; or Pharmingen, San Diego, Calif. Results are expressed in pg/mL.
as §6

Nc1nc2ccccc2c2c1ncn2CCOCCCc1ccccn1 [Example 6, 1-[2-(3-Pyridin-2-ylpropoxy)ethyl]-1H-imidazo[4,5-c]quinolin-4-amine]
minimal effective concentration [1]: 0.12 µM
minimal effective concentration [2]: 1.11 µM
melting point: 138 to 140 °C

Nc1nc2ccccc2c2c1ncn2CCOCCCc1nccs1 [Example 7, 1-{2-[3-(1,3-Thiazol-2-yl)propoxy]ethyl}-1H-imidazo[4,5-c]quinolin-4-amine]
minimal effective concentration [1]: 0.37 µM
Lowest Effective Concentration (μM) Tumor Necrosis Factor [2]: *
melting point: 134 to 135 °C

Nc1nc2ccccc2c2c1ncn2CCOCc1cn(CSc2ccccc2)nn1 [Example 11, 1-[2-({1-[(Phenylsulfanyl)methyl]-1H-1,2,3-triazol-4-yl}methoxy)ethyl]-1H-imidazo[4,5-c]quinoline-4-amine]
minimal effective concentration [1]: 1.11 µM
minimal effective concentration [2]: 0.04 µM
melting point: 182 to 184 °C

Nc1nc2ccccc2c2c1ncn2CCOCc1ccccn1 [Example 14, 1-[2-(Pyridin-2-ylmethoxy)ethyl]-1H-imidazo[4,5-c]quinolin-4-amine]
minimal effective concentration [1]: 0.12 µM
minimal effective concentration [2]: 0.37 µM
melting point: 196 to 198 °C

Nc1nc2ccccc2c2c1ncn2CCOCc1ccncc1 [Example 15, 1-[2-(Pyridin-4-ylmethoxy)ethyl]-1H-imidazo[4,5-c]quinolin-4-amine]
minimal effective concentration [1]: 1.11 µM
minimal effective concentration [2]: 3.33 µM
melting point: 159 to 161 °C

Cc1noc(C)c1COCCn1cnc2c(N)nc3ccccc3c21 [Example 16, 1-{2-[(3,5-Dimethylisoxazol-4-yl)methoxy]ethyl}-1H-imidazo[4,5-c]quinolin-4-amine]
minimal effective concentration [1]: 3.33 µM
minimal effective concentration [2]: 10 µM
melting point: 213 to 215 °C

Nc1nc2ccccc2c2c1ncn2CCOCC#Cc1cccs1 [Example 30, 1-{2-[(3-thien-2-ylprop-2-ynyl)oxy]ethyl}-1H-imidazo[4,5-c]quinolin-4-amine]
minimal effective concentration [1]: 0.37 µM
minimal effective concentration [2]: 3.33 µM
melting point: 148 to 150 °C

Cn1c(COCCn2cnc3c(N)nc4ccccc4c32)cc2ccccc21 [Example 31, 1-{2-[(1-methyl-1H-indol-2-yl)methoxy]ethyl}-1H-imidazo[4,5-c]quinolin-4-amine]
minimal effective concentration [1]: 3.33 µM
minimal effective concentration [2]: 3.33 µM
melting point: 243 to 245 °C

Nc1nc2ccccc2c2c1ncn2CCOCCCc1cccs1 [Example 32, 1-[2-(3-thien-2-ylpropoxy)ethyl]-1H-imidazo[4,5-c]quinolin-4-amine]
minimal effective concentration [1]: 0.01 µM
minimal effective concentration [2]: 1.11 µM
melting point: 130.1 to 131.6 °C

Cc1nc2c(N)nc3ccccc3c2n1CCOCCCc1cccnc1 [Example 34, 2-Methyl-1-[2-(3-pyridin-3-ylpropoxy)ethyl]-1H-imidazo[4,5-c]quinoline-4-amine]
minimal effective concentration [1]: 0.01 µM
minimal effective concentration [2]: 0.04 µM
melting point: 145 to 146 °C
